This note sets out measurements from patent publication US20240122179A1, “AUXINIC HERBICIDES AND METHODS OF USE THEREOF” (CORTEVA AGRISCIENCE LLC, priority 2021, published 2024).

Molecules are shown by their SMILES. Where two headings read alike, the source gives them in different places.

Holding throughout (experiment): Postemergence herbicide evaluation, percent reduction in plant size vs untreated control, 21 days after treatment
The test system of one experiment is Amaranthus rudis (AMATA). It is filed as in vivo, Amaranthus rudis (tall water hemp). As to conditions: Amaranthus tuberculatus, post-emergence, 504 h, AMATA, postemergence, read-out: Control/Injury; for pest or weed control at 140 g/ha: rate 140 g ae/ha; for pest or weed control at 280 g/ha: rate 280 g ae/ha. In a few lines:
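Growth-reduction values are percent decrease in plant size relative to untreated plants, scored 21 days post-application. Amaranthus rudis (2-8 leaves) received postemergence sprays at 140 or 280 g ae/ha, 187 L/ha, in a mixed acetone/DMSO/water/isopropanol carrier with crop oil concentrate. Greenhouse conditions were 25-28° C, 50-60% RH; 3-4 randomized replicates.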

For a further experiment, the system named is Kochia scoparia (KCHSC). It is filed as in vivo. Conditions: Bassia scoparia, post-emergence, 504 h, KCHSC, postemergence, percent reduction vs untreated, 21 days after treatment, read-out: Control/Injury; for pest or weed control at 140 g/ha: rate 140 g ae/ha; for pest or weed control at 280 g/ha: rate 280 g ae/ha. In a few lines:
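Values are percent reduction in plant size against an untreated control, measured 21 days after a single postemergence spray at 140 or 280 g ae/ha (187 L/ha, 276 kPa). Treatments used 3-4 randomized complete-block replicates on 2 to 8 leaf-stage plants kept in a 25-28 °C greenhouse, with compounds in acetone/DMSO-based solvent containing crop oil and surfactant.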

Experiment [1] concerns Amaranthus palmeri (AMAPA). It counts as in vivo, Amaranthus palmeri (Palmer amaranth). As to conditions: post-emergence, 504 h, AMAPA, postemergence, read-out: Control/Injury; for pest or weed control at 140 g/ha: rate 140 g ae/ha; for pest or weed control at 280 g/ha: rate 280 g ae/ha. The method in brief:
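Percent reduction in plant size relative to untreated plants, measured 21 days after track-sprayer application (187 L/ha) of 140 or 280 g ae/ha to Amaranthus palmeri at the 2 to 8 leaf stage. Randomized complete block, 3 or 4 replicates, greenhouse at 25 to 28° C; spray solution acetone/DMSO with isopropanol, water and crop oil concentrate.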

The subject of experiment [2] is Conyza canadensis (L.) (ERICA). It counts as in vivo, Conyza canadensis (L.) (Horseweed). As to conditions: Erigeron canadensis, post-emergence, 504 h, ERICA, postemergence, read-out: Control/Injury; for pest or weed control at 140 g/ha: rate 140 g ae/ha; for pest or weed control at 280 g/ha: rate 280 g ae/ha. In a few lines:
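Track-sprayer applications (187 L/ha, 276 kPa) of 140 or 280 g ae/ha, technical material dissolved in acetone/DMSO then diluted with crop oil and surfactant-containing solvent, to greenhouse Conyza canadensis at 2-8 leaves. After 21 days, size reduction relative to untreated plants was recorded; 3-4 randomized replicates.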

Experiment [3] has as its system Ambrosia artemisiifolia (AMBEL). It counts as in vivo, Ambrosia artemisiifolia (common ragweed). As to conditions: post-emergence, 504 h, AMBEL, postemergence, read-out: Control/Injury; for pest or weed control at 140 g/ha: rate 140 g ae/ha; for pest or weed control at 280 g/ha: rate 280 g ae/ha. In a few lines:
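Test compounds at 140 or 280 g ae/ha were applied by track sprayer (187 L/ha, spray solution containing acetone/DMSO, isopropanol, crop oil, surfactant) to 2–8 leaf plants, 3–4 replicates. Plants were kept in a greenhouse at 25–28 °C. Size reduction was scored against untreated controls at 21 days.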

Where [4] appears, read: percent reduction vs untreated, 21 days after treatment.

As for `COc1c(Cl)ccc(Cl)c1C(=O)n1cnc2ccccc21` [Compound A-115], the pest or weed control at 140 g/ha amounted to 15% in the experiment with Amaranthus rudis (AMATA); 8% with Kochia scoparia (KCHSC); 20% in experiment [1]; 3% in experiment [2]; 5% in experiment [3]. The pest or weed control at 280 g/ha with Amaranthus rudis (AMATA) came to 38%; in the experiment on Kochia scoparia (KCHSC), 13%; in experiment [1] it was 38%; in experiment [2], 13%; in experiment [3], 28%.

In the case of `CCc1nnc(OC(=O)c2c(Cl)ccc(Cl)c2OC)s1` [Compound A-119], the pest or weed control at 140 g/ha stood at 20% with Amaranthus rudis (AMATA); 10% in the experiment with Kochia scoparia (KCHSC); 8% in experiment [1]; 0% in experiment [2]; 5% in experiment [3]. The pest or weed control at 280 g/ha in the experiment with Amaranthus rudis (AMATA) is 13%; with Kochia scoparia (KCHSC), 3%; in experiment [1], 20%; in experiment [2], 10%; in experiment [3], 10%.

Turning to `COc1c(Cl)ccc(Cl)c1C(=O)Oc1ncn(-c2ccccc2)n1` [Compound A-121], the pest or weed control at 140 g/ha is 75% in the experiment with Amaranthus rudis (AMATA); 83% in the experiment with Kochia scoparia (KCHSC); 75% in experiment [1]; 97% in experiment [2]; 88% in experiment [3]. Further, the pest or weed control at 280 g/ha in the experiment on Amaranthus rudis (AMATA) worked out at 94%; with Kochia scoparia (KCHSC) it was 96%; in experiment [1], 85%; in experiment [2], 99%; in experiment [3], 98%.

For the molecule `COc1c(Cl)ccc(Cl)c1C(=O)Oc1noc2ccccc12` [Compound A-122], the pest or weed control at 140 g/ha was 38% with Amaranthus rudis (AMATA); 80% in the experiment on Kochia scoparia (KCHSC); 28% in experiment [1]; 95% in experiment [2]; 73% in experiment [3]. Further, the pest or weed control at 280 g/ha in the experiment with Amaranthus rudis (AMATA) worked out at 50%; in the experiment with Kochia scoparia (KCHSC), 93%; in experiment [1], 45%; in experiment [2], 100%; in experiment [3], 97%.

Turning to `COc1c(Cl)ccc(Cl)c1C(=O)OCc1cc(COC(=O)c2c(Cl)ccc(Cl)c2OC)cc(COC(=O)c2c(Cl)ccc(Cl)c2OC)c1` [Compound A-123], the pest or weed control at 140 g/ha with Amaranthus rudis (AMATA) is 0%; in the experiment with Kochia scoparia (KCHSC), 0%; in experiment [1] it was 2%; in experiment [2], 0%; in experiment [3], 5%. The pest or weed control at 280 g/ha in the experiment with Amaranthus rudis (AMATA) was 8%; in the experiment on Kochia scoparia (KCHSC) it was 0%; in experiment [1], 3%; in experiment [2], 0%; in experiment [3] it was 5%.

Turning to `COc1c(Cl)ccc(Cl)c1C(=O)NOc1ccccc1` [Compound A-124], the pest or weed control at 140 g/ha came out at 3% in the experiment with Amaranthus rudis (AMATA); 0% in the experiment on Kochia scoparia (KCHSC); 4% in experiment [1]; 0% in experiment [2]; 20% in experiment [3]. Moreover, the pest or weed control at 280 g/ha in the experiment with Amaranthus rudis (AMATA) came out at 10%; in the experiment on Kochia scoparia (KCHSC), 0%; in experiment [1], 3%; in experiment [2], 3%; in experiment [3] it was 28%.

Turning to `COc1c(Cl)ccc(Cl)c1C(=O)n1ccnc1` [Compound A-126], the pest or weed control at 140 g/ha in the experiment with Amaranthus rudis (AMATA) turned out to be 45%; in the experiment with Kochia scoparia (KCHSC) it was 28%; in experiment [1], 33%; in experiment [2] it was 15%; in experiment [3] it was 33%. The pest or weed control at 280 g/ha was 55% in the experiment with Amaranthus rudis (AMATA); 50% in the experiment on Kochia scoparia (KCHSC); 35% in experiment [1]; 33% in experiment [2]; 50% in experiment [3].

On to `COc1c(Cl)ccc(Cl)c1C(=O)NN1CCOCC1` [Compound A-127], for which the pest or weed control at 140 g/ha came out at 30% in the experiment with Amaranthus rudis (AMATA); 3% in the experiment on Kochia scoparia (KCHSC); 20% in experiment [1]; 18% in experiment [2]; 30% in experiment [3]. The pest or weed control at 280 g/ha with Amaranthus rudis (AMATA) worked out at 35%; with Kochia scoparia (KCHSC) it was 5%; in experiment [1] it was 23%; in experiment [2], 13%; in experiment [3], 63%.

Turning to `CCCCCCNC(=O)c1c(Cl)ccc(Cl)c1OC` [Compound A-128], the pest or weed control at 140 g/ha in the experiment with Amaranthus rudis (AMATA) came to 3%; in the experiment with Kochia scoparia (KCHSC) it was 0%; in experiment [1], 3%; in experiment [2] (setting [4]), 3%; in experiment [3], 3%. Also, the pest or weed control at 280 g/ha in the experiment with Amaranthus rudis (AMATA) worked out at 8%; with Kochia scoparia (KCHSC) it was 0%; in experiment [1], 5%; in experiment [2] (setting [4]) it was 5%; in experiment [3], 5%.

For `COc1c(Cl)ccc(Cl)c1C(=O)n1oc2ccccc2c1=O` [Compound A-130], the pest or weed control at 140 g/ha in the experiment with Amaranthus rudis (AMATA) was 20%; in the experiment with Kochia scoparia (KCHSC), 45%; in experiment [1] it was 18%; in experiment [2] it was 13%; in experiment [3], 40%. In addition, the pest or weed control at 280 g/ha with Amaranthus rudis (AMATA) was determined as 28%; in the experiment on Kochia scoparia (KCHSC) it was 45%; in experiment [1], 20%; in experiment [2] it was 28%; in experiment [3], 48%.

On to `COc1c(Cl)ccc(Cl)c1C(=O)NNc1ccccc1` [Compound A-131], for which the pest or weed control at 140 g/ha was 40% in the experiment on Amaranthus rudis (AMATA); 30% with Kochia scoparia (KCHSC); 23% in experiment [1]; 28% in experiment [2]; 48% in experiment [3]. The pest or weed control at 280 g/ha in the experiment with Amaranthus rudis (AMATA) came out at 30%; in the experiment on Kochia scoparia (KCHSC) it was 38%; in experiment [1], 38%; in experiment [2], 30%; in experiment [3], 58%.

Turning to `COc1c(Cl)ccc(Cl)c1C(=O)NNc1ccc([N+](=O)[O-])cc1` [Compound A-132], the pest or weed control at 140 g/ha stood at 18% in the experiment with Amaranthus rudis (AMATA); 8% in the experiment on Kochia scoparia (KCHSC); 20% in experiment [1]; 23% in experiment [2]; 38% in experiment [3]. The pest or weed control at 280 g/ha with Amaranthus rudis (AMATA) worked out at 18%; in the experiment with Kochia scoparia (KCHSC), 15%; in experiment [1] it was 30%; in experiment [2], 8%; in experiment [3], 33%.

`COc1c(Cl)ccc(Cl)c1C(=O)n1nc(C)cc1C` [Compound A-133]: the pest or weed control at 140 g/ha in the experiment on Amaranthus rudis (AMATA) was determined as 8%; with Kochia scoparia (KCHSC) it was 0%; in experiment [1], 10%; in experiment [2] (setting [4]), 3%; in experiment [3], 3%. Besides, the pest or weed control at 280 g/ha was 5% in the experiment on Amaranthus rudis (AMATA); 20% in the experiment on Kochia scoparia (KCHSC); 15% in experiment [1]; 3% in experiment [2] (setting [4]); 8% in experiment [3].
